Where two headings read alike, the source gives them in different places. Values belong to the compound of their own block, whether it stands above or below them.
Molecular target: homodimer
Experiment: Dimer dissociation constant from concentration dependence of NH chemical shifts (NMR)
Format: binding
Description: Dimerization of the Ach-containing peptide analogs of this invention can be detected by observing changes in NH chemical shifts as a function of concentration. For a dimerization process with dissociation constant Kd and NMR chemical shifts δmono and δdi, respectively, the observed chemical shift, δobs, as a function of concentration c is expressed by the following equation: [formula]
Experimental data were obtained for Ac-Phe-Ach-Leu-Ach-Ile, N-methyl amide and for its corresponding sarcosine-containing peptide corresponding to Ac-Phe-Sar-Leu-Sar-Ile, N-methyl amide, as well as for various other Ach-containing peptide analogs of this invention terminating in carboxylic acid groups rather than N-methyl amide groups, all in CDCl3 or CD3OH/CDCl3 at 25° C.
To distinguish between the two species, the dissociation constants of dimers of each species were determined.

Kd (0% CD3OH/CDCl3 (pure CDCl3), 25° C., read-out: Dissociation constant Kd (dimer)): 400 µM
Compound: CCC(C)C(NC1=CC(=O)CN(C(=O)C(CC(C)C)NC2=CC(=O)CN(C(=O)C(Cc3ccccc3)NC(C)=O)C2)C1)C(=O)NC (stereo not drawn) [Ac-Phe-Ach-Leu-Ach-Ile-NHMe, Ac-Phe-Ach-Leu-Ach-Ile, N-Methyl Amide]

Kd (15% CD3OH/CDCl3, 25° C., read-out: Dissociation constant Kd (dimer)): 1500 µM
Compound: Ac-Leu-Ach-Val-Ach-Leu-Ach-Phe-OH [Ach-containing peptide analog (heptamer) terminating in carboxylic acid group]

Kd (2.5% CD3OH/CDCl3, 25° C., read-out: Dissociation constant Kd (dimer)): 90 µM | Kd (5% CD3OH/CDCl3, 25° C., read-out: Dissociation constant Kd (dimer)): 8000 µM | Kd (pure chloroform, extrapolated from Kd vs CD3OH concentration, read-out: Dissociation constant in pure chloroform, extrapolation of the line in FIG. 1): ~0.13 µM
Compound: Ac-Phe-Ach-Leu-Ach-Val-OH [Ach-containing peptide analog terminating in carboxylic acid group]

Kd (5% CD3OH/CDCl3, concentration range 0.6-42 mM, read-out: Dimer dissociation constant): 25000 µM
Compound: Phe-Gly-Ser-D-Pro-Ala-Leu-Ach-Ile [hybrid 1]
